Positions of bridges follow the written chain, without caps; N, C: chain ends. Residues, ends and D or L forms follow the SMILES beside them.
How the values were obtained:
GABABR-coupled CaV2.2 [1] = details: cited from earlier work
CaV2.2 = target: T1, CaV2.2 (Rattus norvegicus, UniProt Q02294); type: cell-based
T1 construct: expressed in transfected cells; host or cells: HEK293

α4β4 nAChR = target: T2, α4β4 nAChR (Rattus norvegicus, UniProt P09483+P12392); type: cell-based; details: SEM
T2 construct: expressed in transfected cells; host or cells: Xenopus oocytes, cRNA injected

α2β4 nAChR = target: T3, α2β4 nAChR (Rattus norvegicus, UniProt P12389+P12392); type: cell-based; details: SEM
T3 construct: expressed in transfected cells; host or cells: Xenopus oocytes, cRNA injected

α4β2 nAChR = target: T4, α4β2 nAChR (Rattus norvegicus, UniProt P09483+P12390); type: cell-based; details: SEM
T4 construct: expressed in transfected cells; host or cells: Xenopus oocytes, cRNA injected

GABABR-coupled CaV2.2 [2] = target: T5, GABABR-coupled CaV2.2 (Homo sapiens, UniProt O75899+Q9UBS5); test: cell-based; set-up: species or system rat Cav2.2; details: for inhibition at 1 µM: HEK293, read-out: Inhibition Efficacy (1 µM)%, SEM; for IC50: IC50 (nM) (95% Confidence Interval)
T5 construct: expressed in transfected cells

α3β2 nAChR = target: T6, α3β2 nAChR (Rattus norvegicus, UniProt P04757+P12390); type: cell-based; details: SEM
T6 construct: expressed in transfected cells; host or cells: Xenopus oocytes, cRNA injected

α7 nAChR = target: T7, α7 nAChR (Rattus norvegicus, UniProt Q05941); type: cell-based; details: SEM
T7 construct: expressed in transfected cells; host or cells: Xenopus oocytes, cRNA injected

α9α10 nAChR = target: T8, α9α10 nAChR (Rattus norvegicus, UniProt P43144+Q9JLB5); type: cell-based; details: SEM
T8 construct: expressed in transfected cells; host or cells: Xenopus oocytes, cRNA injected

α3β4 nAChR = target: T9, α3β4 nAChR (Rattus norvegicus, UniProt P04757+P12392); type: cell-based; details: SEM
T9 construct: expressed in transfected cells; host or cells: Xenopus oocytes, cRNA injected
T9 sequence (P04757 26-499 limits assumed): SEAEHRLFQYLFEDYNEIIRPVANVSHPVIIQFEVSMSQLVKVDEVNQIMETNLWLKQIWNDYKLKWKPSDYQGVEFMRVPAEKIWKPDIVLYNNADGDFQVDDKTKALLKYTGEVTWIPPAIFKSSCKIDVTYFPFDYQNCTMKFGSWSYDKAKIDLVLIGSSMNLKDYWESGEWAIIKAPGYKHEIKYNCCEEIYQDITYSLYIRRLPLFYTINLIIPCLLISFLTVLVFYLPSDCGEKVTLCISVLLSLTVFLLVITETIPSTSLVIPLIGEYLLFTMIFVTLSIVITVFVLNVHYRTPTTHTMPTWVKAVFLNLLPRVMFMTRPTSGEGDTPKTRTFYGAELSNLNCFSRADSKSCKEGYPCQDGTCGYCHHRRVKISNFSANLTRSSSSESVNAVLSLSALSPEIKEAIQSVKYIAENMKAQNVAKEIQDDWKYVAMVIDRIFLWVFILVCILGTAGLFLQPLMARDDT
T9 sequence (P12392 21-495 limits assumed): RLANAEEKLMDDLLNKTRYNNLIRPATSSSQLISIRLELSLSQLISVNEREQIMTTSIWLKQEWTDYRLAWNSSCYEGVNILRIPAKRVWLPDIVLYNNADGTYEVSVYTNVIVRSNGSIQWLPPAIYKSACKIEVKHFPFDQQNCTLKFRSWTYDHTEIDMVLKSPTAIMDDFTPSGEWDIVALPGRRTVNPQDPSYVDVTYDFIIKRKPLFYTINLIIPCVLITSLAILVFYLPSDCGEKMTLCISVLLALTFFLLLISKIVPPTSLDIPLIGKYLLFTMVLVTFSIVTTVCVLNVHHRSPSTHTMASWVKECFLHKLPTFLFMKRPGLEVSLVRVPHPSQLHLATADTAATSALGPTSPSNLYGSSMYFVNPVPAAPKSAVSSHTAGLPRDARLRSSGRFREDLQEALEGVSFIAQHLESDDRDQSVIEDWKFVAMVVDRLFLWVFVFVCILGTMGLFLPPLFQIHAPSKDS

T5 sequence (Q9UBS5 15-961 limits assumed): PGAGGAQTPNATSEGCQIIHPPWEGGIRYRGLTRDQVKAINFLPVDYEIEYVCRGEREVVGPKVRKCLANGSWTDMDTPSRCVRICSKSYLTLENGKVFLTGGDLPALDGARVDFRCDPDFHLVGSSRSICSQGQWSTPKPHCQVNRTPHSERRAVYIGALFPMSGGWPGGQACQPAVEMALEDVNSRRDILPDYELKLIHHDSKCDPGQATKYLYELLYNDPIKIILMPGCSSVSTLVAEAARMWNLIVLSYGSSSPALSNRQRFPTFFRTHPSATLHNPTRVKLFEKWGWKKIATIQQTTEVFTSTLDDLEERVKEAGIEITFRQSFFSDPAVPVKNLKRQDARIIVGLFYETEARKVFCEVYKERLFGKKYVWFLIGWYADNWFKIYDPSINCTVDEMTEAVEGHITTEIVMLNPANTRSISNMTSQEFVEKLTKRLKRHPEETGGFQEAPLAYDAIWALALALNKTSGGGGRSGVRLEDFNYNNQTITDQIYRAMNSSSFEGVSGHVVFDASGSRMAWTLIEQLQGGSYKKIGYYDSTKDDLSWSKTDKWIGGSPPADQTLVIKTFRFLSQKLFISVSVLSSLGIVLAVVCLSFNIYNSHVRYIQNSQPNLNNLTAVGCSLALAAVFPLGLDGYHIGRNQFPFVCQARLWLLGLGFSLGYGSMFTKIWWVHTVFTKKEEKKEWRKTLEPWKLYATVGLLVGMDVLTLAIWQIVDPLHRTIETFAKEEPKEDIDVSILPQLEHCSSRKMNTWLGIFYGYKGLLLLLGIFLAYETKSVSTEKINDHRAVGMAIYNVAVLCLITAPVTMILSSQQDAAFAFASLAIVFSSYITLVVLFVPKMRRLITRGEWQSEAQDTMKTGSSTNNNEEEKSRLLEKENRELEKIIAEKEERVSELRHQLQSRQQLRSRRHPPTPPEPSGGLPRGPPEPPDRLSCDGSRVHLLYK
T5 sequence (O75899 42-941): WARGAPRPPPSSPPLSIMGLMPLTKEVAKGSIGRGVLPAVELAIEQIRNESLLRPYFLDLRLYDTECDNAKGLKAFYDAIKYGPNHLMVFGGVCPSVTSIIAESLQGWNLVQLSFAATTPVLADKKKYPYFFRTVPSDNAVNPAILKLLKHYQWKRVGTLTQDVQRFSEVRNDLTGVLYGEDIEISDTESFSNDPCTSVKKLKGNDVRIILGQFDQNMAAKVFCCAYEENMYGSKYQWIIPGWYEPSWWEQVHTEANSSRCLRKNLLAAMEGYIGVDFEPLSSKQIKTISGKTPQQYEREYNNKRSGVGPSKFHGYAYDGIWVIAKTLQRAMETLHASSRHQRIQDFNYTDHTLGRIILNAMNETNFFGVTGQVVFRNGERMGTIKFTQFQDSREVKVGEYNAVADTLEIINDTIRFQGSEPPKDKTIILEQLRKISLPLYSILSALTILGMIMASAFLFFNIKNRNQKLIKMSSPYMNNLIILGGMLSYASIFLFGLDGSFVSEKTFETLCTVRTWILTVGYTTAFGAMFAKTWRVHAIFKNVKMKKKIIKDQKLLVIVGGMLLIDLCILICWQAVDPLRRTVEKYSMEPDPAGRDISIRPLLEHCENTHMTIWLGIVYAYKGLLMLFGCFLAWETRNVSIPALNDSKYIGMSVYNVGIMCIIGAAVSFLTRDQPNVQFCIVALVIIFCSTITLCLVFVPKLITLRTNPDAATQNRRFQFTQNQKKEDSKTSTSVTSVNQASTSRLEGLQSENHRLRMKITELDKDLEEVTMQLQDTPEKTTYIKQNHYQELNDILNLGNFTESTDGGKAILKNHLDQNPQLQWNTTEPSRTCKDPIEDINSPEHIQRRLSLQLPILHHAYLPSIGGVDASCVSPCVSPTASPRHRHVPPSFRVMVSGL
T2 sequence (P09483 31-630 limits assumed): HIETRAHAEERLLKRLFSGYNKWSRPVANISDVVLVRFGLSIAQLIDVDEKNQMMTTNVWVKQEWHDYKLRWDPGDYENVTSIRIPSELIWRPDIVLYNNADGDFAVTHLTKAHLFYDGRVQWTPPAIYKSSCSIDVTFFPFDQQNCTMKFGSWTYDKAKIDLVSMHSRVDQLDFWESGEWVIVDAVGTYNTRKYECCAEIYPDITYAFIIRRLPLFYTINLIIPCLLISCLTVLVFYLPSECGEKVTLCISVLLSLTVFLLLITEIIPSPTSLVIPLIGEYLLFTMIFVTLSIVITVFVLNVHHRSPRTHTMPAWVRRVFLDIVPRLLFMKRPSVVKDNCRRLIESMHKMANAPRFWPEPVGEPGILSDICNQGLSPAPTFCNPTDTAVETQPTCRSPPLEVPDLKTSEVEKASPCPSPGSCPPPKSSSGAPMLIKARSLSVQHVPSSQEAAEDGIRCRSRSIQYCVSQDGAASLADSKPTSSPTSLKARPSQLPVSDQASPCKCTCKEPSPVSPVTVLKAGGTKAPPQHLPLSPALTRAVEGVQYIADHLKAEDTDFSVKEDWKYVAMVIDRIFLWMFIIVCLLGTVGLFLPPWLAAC
T2 sequence (P12392 21-495 limits assumed): as the sequence (P12392 21-495 limits assumed) above
T4 sequence (P09483 31-630 limits assumed): as the sequence (P09483 31-630 limits assumed) above
T4 sequence (P12390 25-500 limits assumed): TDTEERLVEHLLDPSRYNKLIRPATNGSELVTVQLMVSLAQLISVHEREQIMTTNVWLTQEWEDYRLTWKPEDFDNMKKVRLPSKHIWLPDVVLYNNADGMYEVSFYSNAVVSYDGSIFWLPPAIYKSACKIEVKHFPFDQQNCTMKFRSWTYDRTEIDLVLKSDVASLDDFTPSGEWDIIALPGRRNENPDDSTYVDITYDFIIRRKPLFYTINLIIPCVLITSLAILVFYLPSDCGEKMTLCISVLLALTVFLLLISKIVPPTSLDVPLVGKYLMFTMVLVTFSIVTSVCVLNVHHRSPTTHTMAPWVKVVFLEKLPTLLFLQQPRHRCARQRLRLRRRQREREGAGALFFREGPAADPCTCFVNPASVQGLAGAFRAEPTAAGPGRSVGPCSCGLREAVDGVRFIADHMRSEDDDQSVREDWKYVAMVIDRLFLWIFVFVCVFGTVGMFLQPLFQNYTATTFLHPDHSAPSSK
T7 sequence (Q05941 23-502 limits assumed): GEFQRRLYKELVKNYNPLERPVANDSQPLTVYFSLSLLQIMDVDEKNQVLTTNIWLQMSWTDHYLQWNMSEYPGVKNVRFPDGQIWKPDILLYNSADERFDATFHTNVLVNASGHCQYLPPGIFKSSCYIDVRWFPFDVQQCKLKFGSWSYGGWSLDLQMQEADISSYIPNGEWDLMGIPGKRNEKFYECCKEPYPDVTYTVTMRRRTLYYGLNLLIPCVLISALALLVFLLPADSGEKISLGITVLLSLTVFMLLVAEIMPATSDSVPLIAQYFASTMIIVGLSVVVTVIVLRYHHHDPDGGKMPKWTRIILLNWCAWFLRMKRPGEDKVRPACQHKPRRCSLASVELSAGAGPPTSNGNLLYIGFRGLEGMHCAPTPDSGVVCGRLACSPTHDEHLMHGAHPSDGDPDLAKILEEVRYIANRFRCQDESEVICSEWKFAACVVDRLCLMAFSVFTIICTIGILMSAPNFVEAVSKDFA
T6 sequence (P04757 26-499 limits assumed): as the sequence (P04757 26-499 limits assumed) above
T6 sequence (P12390 25-500 limits assumed): as the sequence (P12390 25-500 limits assumed) above

## Vc1.1
GABABR-coupled CaV2.2 [1]
  IC50: 2.38 nM

## C[C@@H]1NC(=O)[C@H](Cc2ccccc2)NC(=O)[C@@H]2CSSC[C@H](NC(=O)[C@@H](NC(=O)CN)CSSC[C@@H](C(N)=O)NC(=O)[C@H](CC(=O)O)NC(=O)[C@@H]3CCCN3C(=O)[C@H](CC(N)=O)NC(=O)[C@H]([C@@H](C)O)NC1=O)C(=O)N[C@@H](CO)C(=O)N[C@@H](Cc1ccc(O)cc1)C(=O)N1CCC[C@H]1C(=O)N[C@@H](CCCNC(=N)N)C(=O)N2 [AuIB[P7R](ribbon)] (H-GCCSYPRCFATNPDC-NH2; disulfide 2-15, 3-8)
CaV2.2
  direct inhibitory effect on CaV2.2: 14.87 ± 2.42%
α4β4 nAChR
  Inhibitory effect on α4β4 nAChR: 30.44 ± 8.03%
α2β4 nAChR
  Inhibitory effect on α2β4 nAChR: 39.43 ± 6.31%
α4β2 nAChR
  Inhibitory effect on α4β2 nAChR: 35.92 ± 12.50%
GABABR-coupled CaV2.2 [2]
  inhibition at 1 µM: 51.6 ± 1.86%
  IC50: 0.74 nM
α3β2 nAChR
  Inhibitory effect on α3β2 nAChR: 29.25 ± 12.65%
α7 nAChR
  Inhibitory effect on α7 nAChR: 17.00 ± 0.35%
α9α10 nAChR
  Inhibitory effect on α9α10 nAChR: 5.09 ± 7.85%
α3β4 nAChR
  Inhibitory effect on α3β4 nAChR: 39.27 ± 6.45%

## CC(C)C[C@@H]1NC(=O)[C@H](CC(=O)O)NC(=O)[C@@H]2CCCN2C(=O)[C@H](CC(N)=O)NC(=O)[C@H]([C@@H](C)O)NC(=O)[C@H](C)NC(=O)[C@H](Cc2ccccc2)NC(=O)[C@@H]2CSSC[C@H](NC(=O)CN)C(=O)N[C@@H](CSSC[C@@H](C(N)=O)NC1=O)C(=O)N[C@@H](CO)C(=O)N[C@@H](Cc1ccc(O)cc1)C(=O)N1CCC[C@H]1C(=O)N1CCC[C@H]1C(=O)N2 [AuIB[+15L]]
GABABR-coupled CaV2.2 [2]
  inhibition at 1 µM: 27.9 ± 1.37%

## CC[C@H](C)[C@@H]1NC(=O)[C@H](CC(=O)O)NC(=O)[C@@H]2CCCN2C(=O)[C@H](CC(N)=O)NC(=O)[C@H]([C@@H](C)O)NC(=O)[C@H](C)NC(=O)[C@H](Cc2ccccc2)NC(=O)[C@@H]2CSSC[C@H](NC(=O)CN)C(=O)N[C@@H](CSSC[C@@H](C(N)=O)NC1=O)C(=O)N[C@@H](CO)C(=O)N[C@@H](Cc1ccc(O)cc1)C(=O)N1CCC[C@H]1C(=O)N1CCC[C@H]1C(=O)N2 [AuIB[+15I]]
GABABR-coupled CaV2.2 [2]
  inhibition at 1 µM: 30.4 ± 3.26%

## C[C@@H]1NC(=O)[C@H](Cc2ccccc2)NC(=O)[C@@H]2CSSC[C@H](NC(=O)CN)C(=O)N[C@@H](CSSC[C@@H](C(N)=O)NC(=O)[C@H](CC(=O)O)NC(=O)[C@@H]3CCCN3C(=O)[C@H](CC(N)=O)NC(=O)[C@H]([C@@H](C)O)NC1=O)C(=O)N[C@@H](CO)C(=O)N[C@@H](Cc1ccc(O)cc1)C(=O)N1CCC[C@H]1C(=O)N1CCC[C@H]1C(=O)N2 [AuIB(globular), reference compound]
GABABR-coupled CaV2.2 [2]
  inhibition at 1 µM: 27.4 ± 2.05%
  IC50: 1.93 nM
